Laboratory results taken from ChEMBL document CHEMBL1155129, “Hepatitis C NS5B polymerase inhibitors: 4,4-Dialkyl-1-hydroxy-3-oxo-3,4-dihydronaphthalene-3-yl benzothiadiazine derivatives” (Bioorg Med Chem Lett, 2008).

Key:
[1] = tested on: Hepatitis C virus; assay: Antiviral activity against HCV 1b in presence of 5% fetal calf serum by replicon based assay; type: functional, organism-based, Hepacivirus hominis; settings: genotype 1b
[2] = Inhibition of HCV 1a NS5B polymerase; parameters: species or system Hepatitis C virus subtype 1a
[3] = tested on: Hepatitis C virus; assay: Inhibition of HCV 1b NS5B polymerase; parameters: species or system Hepatitis C virus subtype 1b
[4] = tested on: Hepatitis C virus; assay: Antiviral activity against HCV 1a in presence of 5% fetal calf serum by replicon based assay; type: functional, organism-based, Hepacivirus hominis; settings: subtype 1a
[5] = AUC (0 to infinity) in rat at 5 mg/kg, po; type: ADME, organism-based; parameters: time infinity, dose 5 mg/kg, route oral; settings: plasma
[6] = Drug level in rat plasma at 5 mg/kg, po after 6 hrs; type: ADME, organism-based; parameters: dose 5 mg/kg, route oral; settings: read-out: Activity
[7] = Drug level in rat liver at 5 mg/kg, po after 1 hr; type: ADME, organism-based; parameters: dose 5 mg/kg, route oral; settings: read-out: Activity
[8] = Volume of distribution at terminal phase in rat at 5 mg/kg, iv; type: ADME, organism-based; parameters: dose 5 mg/kg, route intravenous; settings: in vivo, read-out: Vbeta
[9] = Cmax in rat plasma at 5 mg/kg, po; type: ADME, organism-based; parameters: dose 5 mg/kg, route oral
[10] = Drug level in rat liver at 5 mg/kg, po after 12 hrs; type: ADME, organism-based; parameters: dose 5 mg/kg, route oral; settings: read-out: Activity
[11] = Drug level in rat liver at 5 mg/kg, po after 6 hrs; type: ADME, organism-based; parameters: dose 5 mg/kg, route oral; settings: read-out: Activity
[12] = Half life in rat at 5 mg/kg, iv; type: ADME, organism-based; parameters: dose 5 mg/kg, route intravenous; settings: in vivo
[13] = Ratio of drug level in liver to plasma in rat at 5 mg/kg, po after 6 hrs; type: ADME, organism-based; parameters: dose 5 mg/kg, route oral; settings: other tissue
[14] = Half life in rat at 5 mg/kg, po; type: ADME, organism-based; parameters: dose 5 mg/kg, route oral; settings: in vivo
[15] = Tmax in rat at 5 mg/kg, po; type: ADME, organism-based; parameters: dose 5 mg/kg, route oral; settings: in vivo
[16] = Oral bioavailability in rat at 5 mg/kg; type: ADME, organism-based; settings: in vivo
[17] = Plasma clearance in rat at 5 mg/kg, iv; type: ADME, organism-based; parameters: dose 5 mg/kg, route intravenous
[18] = Ratio of drug level in liver to plasma in rat at 5 mg/kg, po after 1 hr; type: ADME, organism-based; parameters: dose 5 mg/kg, route oral; settings: other tissue
[19] = Drug level in rat plasma at 5 mg/kg, po after 12 hrs; type: ADME, organism-based; parameters: dose 5 mg/kg, route oral; settings: read-out: Activity
[20] = AUC (0 to infinity) in rat at 5 mg/kg, iv; type: ADME, organism-based; parameters: time infinity, dose 5 mg/kg, route intravenous; settings: plasma
[21] = Ratio of drug level in liver to plasma in rat at 5 mg/kg, po after 12 hrs; type: ADME, organism-based; parameters: dose 5 mg/kg, route oral; settings: other tissue
[22] = Volume of distribution at steady state in rat at 5 mg/kg, iv; type: ADME, organism-based; parameters: dose 5 mg/kg, route intravenous; settings: in vivo, read-out: Vdss
[23] = Drug level in rat plasma at 5 mg/kg, po after 1 hr; type: ADME, organism-based; parameters: dose 5 mg/kg, route oral; settings: read-out: Activity
[24] = Drug level in rat liver at 5 mg/kg, po after 24 hrs; type: ADME, organism-based; parameters: dose 5 mg/kg, route oral; settings: read-out: Activity

Row | Compound | EC50 [1] [nM] | IC50 [2] [nM] | IC50 [3] [nM] | EC50 [4] [nM] | further results
1 | CC(C)CCn1c(=O)c(C2=NS(=O)(=O)c3ccccc3N2)c(O)c2ccccc21 | 250 | 540 |  |  | 
2 | CC1(C)C(=O)C(C2=NS(=O)(=O)c3cc(NS(C)(=O)=O)ccc3N2)=C(O)c2ccccc21 |  | 930 | 6260 |  | 
3 | CCCC1(CCC)C(=O)C(C2=NS(=O)(=O)c3cc(NS(C)(=O)=O)ccc3N2)=C(O)c2ccccc21 | 22 | 99 | 130 |  | 
4 | CC(C)CCC1(CCC(C)C)C(=O)C(C2=NS(=O)(=O)c3cc(NS(C)(=O)=O)ccc3N2)=C(O)c2ccccc21 |  | 68 | 390 |  | 
5 | O=c1c(C2=NS(=O)(=O)c3ccccc3N2)c(O)c2ccccc2n1NC1CCC1 | 100 | 280 | 480 |  | 
6 | CCCC1(CCC)C(=O)C(C2=NS(=O)(=O)c3ccccc3N2)=C(O)c2ccccc21 |  | 2200 |  |  | 
7 | CCCC1(CCC)C(=O)C(C2=NS(=O)(=O)c3cc(OCC(N)=O)ccc3N2)=C(O)c2ccccc21 | 810 | 240 |  | > 10000 | 
8 | CCCCC1(CCCC)C(=O)C(C2=NS(=O)(=O)c3ccccc3N2)=C(O)c2ccccc21 |  | 990 | 2270 |  | 
9 | CCCCC1(CCCC)C(=O)C(C2=NS(=O)(=O)c3cc(OCC(N)=O)ccc3N2)=C(O)c2ccccc21 | 290 | 260 | 330 | 9640 | 
10 | CCCCC1(CCCC)C(=O)C(C2=NS(=O)(=O)c3cc(NS(C)(=O)=O)ccc3N2)=C(O)c2ccccc21 | 48 | 10 | 73 | 280 | AUC(0-inf) [5]: 6400 ng·h/mL; concentration at 6 h [6]: 410 ng/mL; concentration at 1 h [7]: 14200 ng/g; Vd [8]: 6.11 L/kg; Cmax [9]: 580 ng/mL; concentration at 12 h [10]: 4600 ng/g; concentration at 6 h [11]: 20800 ng/g; half-life [12]: 4.3 h; Ratio [13]: 48.2 mL/g; half-life [14]: 4.3 h; Tmax [15]: 3 h; bioavailability [16]: 94.3%; clearance [17]: 11.7 mL/min/kg; Ratio [18]: 34.3 mL/g; concentration at 12 h [19]: 250 ng/mL; AUC(0-inf) [20]: 7300 ng·h/mL; Ratio [21]: 17.3 mL/g; Vd [22]: 1.87 L/kg; concentration at 1 h [23]: 450 ng/mL; concentration at 24 h [24]: 150 ng/g
11 | CC1(C)C(=O)C(C2=NS(=O)(=O)c3ccccc3N2)=C(O)c2ccccc21 |  | 2200 | 6260 |  | 
12 | CC(C)CCC1(CCC(C)C)C(=O)C(C2=NS(=O)(=O)c3ccccc3N2)=C(O)c2ccccc21 |  | 820 |  |  | 
13 | CC(C)CCC1(CCC(C)C)C(=O)C(C2=NS(=O)(=O)c3cc(OCC(N)=O)ccc3N2)=C(O)c2ccccc21 | > 3000 | 320 |  | 10100 | 
